Where two headings read alike, the source gives them in different places. Marks after values point to notes of the source that are not given here.

This is an account of results in US20160129077A1, “Use of recombinant ganoderma immunoregulatory protein (rLZ-8) in preparation of drug for treating melanoma” (priority 2013, published 2016).

The test system of data set [1] is B16-F10 lung metastases. Nature of the data set: B16-F10 melanoma lung metastasis model (tail vein injection) in Kunming mice. Type of data set: in vivo. The conditions noted are these: DTIC 2.5 mg/kg. The source says:
DMEM, fetal bovine serum, PBS, trypsin-EDTA, DMSO, Tris-HCl buffer with pH 7.6 for rinsing, 0.05% trypsin, rLZ-8, and DTIC.
After the mice were put to death, lungs of the dead mice were dissected out and the number of black spots on surfaces of the lungs, formed by an aggregation of metastasis cell, was counted, so as to calculate the inhibition rate of the drug against the growth of the lung metastasis as: inhibition rate=(an average metastasis number of the negative contrast group−an average metastasis number of the drug administrated group)/the average metastasis number of the negative contrast group×100%. A time and the number of the dead mouse in each experiment group were recorded in detail, especially during administrating the drug continuously, until the negative contrast group was completely dead; and then, the survival states of the mice in the experiment groups and the contrast groups were analyzed. A survival rate was calculated according to the number of the dead mice in the other groups when all the mice of the negative contrast group were dead, based on a formula that survival rate=(a total number of the mice−the number of the dead mice)/the total number of the mice.

For data set [2], the system named is B16F10 orthotopic tumor.
Procedure: The mice were transplanted with a melanoma cells line B16-F10.
The mice melanoma cells B16-F10 were cultured in the DMEM containing 10% fetal bovine serum, at 37° C. in the CO2 thermostat incubator. 200 μl of B16-F10 cell suspension (containing 1×10^7 cells) was slowly subcutaneously injected into a dorsal-ventral side of the mouse through 1 ml syringe, so as to establish a model of mice transplanted with tumors. […] The rLZ-8 was injected once per day; the DTIC was continuously tail-intravenously injected for 5 days and injected for a second time after 3 weeks. During the experiment, living states of the mice were observed; the mice were weighed once every 7 days; blood samples were taken from tail veins of the mice every 2 weeks; volumes of the tumors, subcutaneously injected into the mice, were measured every 2 days; for each group, the tumors were dissected at an end of the experiment and weighed on the balance, with weights recorded. According to a formula that a tumor growth inhibition rate=(an average weight of the tumors of the physiological saline group−an average weight of the tumors of the drug administrated groups)/the average weight of the tumors of the physiological saline group, the inhibition rate of the rLZ-8 upon the growth of the orthotopic tumor was calculated.
In data set [3] the test system is metastatic melanoma. The conditions noted are these: immune therapy; cited from earlier work.
The mark [4] stands for this setting: DTIC 2.5 mg/kg tail i.v., administration for 28 days.
Where [5] appears, read: DTIC 2.5 mg/kg, administration for 56 days.
Setting [6] is: DTIC 2.5 mg/kg, dead mice/animal number.

For the molecule `CN(C)/N=N/c1[nH]cnc1C(N)=O` [DTIC, Dacarbazine, reference compound], the “Survival rate when all mice of the negative contrast group were dead” value in data set [1] (87th / 95th day after injecting the tumors) turned out to be 10%. For the same molecule, the “Tumor metastases inhibition rate” value in data set [1] (administration for 28 days) was determined as 32.04±1.27%. Moreover, in data set [1] (administration for 56 days), the “Tumor metastases inhibition rate” value is on record as 58.43 ± 3.21%. Moreover, in data set [2] (setting [4]), the Tumor volume is 0.19 ± 0.09** mm^3 and the Tumor weight came to 0.23 ± 0.12 g. Moreover, the “Tumor growth inhibition rate” value in data set [2] (DTIC 2.5 mg/kg, administration for 28 days) is 81.26 ± 0.27^ %. In addition, in data set [2] (setting [5]), the “Tumor growth inhibition rate” value is 64.42 ± 0.41^ %, the Tumor volume is given as 0.73 ± 0.21* mm^3 and the Tumor weight is reported as 0.87 ± 0.26 g. In addition, in data set [2] (setting [6]), the “Mortality rate (administration for 28 days)” value was 0/10 and the “Mortality rate (administration for 56 days)” value is 4/10. Further, the Body leukocyte number entry in data set [2] (tumor-bearing mice, tail vein blood, anti-tumor treatment experiment (28/56 days)) is “greatly decreased the body leukocyte number”.

As for “ipilimumab: anti-CTLA-4 antibody, immune therapy for metastatic melanoma”, in data set [3], the Positive reaction rate result is given as “about 10.9%”.
